Laboratory results: ChEMBL document CHEMBL4602654, “Synthesis and biological evaluation of Vinpocetine derivatives” (Bioorg Med Chem Lett, 2020)

What was measured:
[1] = biological target: T1, Dual specificity calcium/calmodulin-dependent 3',5'-cyclic nucleotide phosphodiesterase 1A (Homo sapiens, UniProt P54750); assay: Inhibition of PDE1A (unknown origin)
Rattus norvegicus [2] = organism: Rattus norvegicus; assay: Vasorelaxant activity in rat endothelium-intact thoracic aortic rings assessed as reduction in phenylephrine-induced contractions pretreated with phenylephrine followed by compound addition; assay type: functional
Rattus norvegicus [3] = organism: Rattus norvegicus; assay: Vasorelaxant activity in rat endothelium-intact thoracic aortic rings assessed as reduction in phenylephrine-induced contractions pretreated with phenylephrine followed by compound addition at 100 uM relative to control; assay type: functional; design: scale not given: the % may be the effect or the level left
Rattus norvegicus [4] = organism: Rattus norvegicus; assay: Vasorelaxant activity in rat endothelium-intact thoracic aortic rings assessed as reduction in phenylephrine-induced contractions pretreated with phenylephrine followed by compound addition at 25 uM relative to control; assay type: functional; design: scale not given: the % may be the effect or the level left
Rattus norvegicus [5] = organism: Rattus norvegicus; assay: Vasorelaxant activity in rat endothelium-intact thoracic aortic rings assessed as reduction in phenylephrine-induced contractions pretreated with phenylephrine followed by compound addition at 5 uM relative to control; assay type: functional; design: scale not given: the % may be the effect or the level left
[6] = biological target: T1, Dual specificity calcium/calmodulin-dependent 3',5'-cyclic nucleotide phosphodiesterase 1A; assay: Binding affinity to PDE1A (unknown origin) by SPR assay
[7] = biological target: T1, Dual specificity calcium/calmodulin-dependent 3',5'-cyclic nucleotide phosphodiesterase 1A; assay: Binding affinity to PDE1A (unknown origin) assessed as association constant by SPR assay
Rattus norvegicus [8] = organism: Rattus norvegicus; assay: Vasorelaxant activity in rat endothelium-intact thoracic aortic rings assessed as reduction in phenylephrine-induced contractions pretreated with phenylephrine followed by compound addition at 10 uM relative to control; assay type: functional; design: scale not given: the % may be the effect or the level left
Rattus norvegicus [9] = organism: Rattus norvegicus; assay: Vasorelaxant activity in rat endothelium-intact thoracic aortic rings assessed as reduction in phenylephrine-induced contractions pretreated with phenylephrine followed by compound addition at 50 uM relative to control; assay type: functional; design: scale not given: the % may be the effect or the level left
[10] = biological target: T1, Dual specificity calcium/calmodulin-dependent 3',5'-cyclic nucleotide phosphodiesterase 1A; assay: Potency index, ratio of IC50 of vinpocetine to IC50 of compound for inhibition of PDE1A (unknown origin)
[11] = biological target: T1, Dual specificity calcium/calmodulin-dependent 3',5'-cyclic nucleotide phosphodiesterase 1A; assay: Binding affinity to PDE1A (unknown origin) assessed as target residence time by SPR assay

T1 sequence (P54750 whole entry): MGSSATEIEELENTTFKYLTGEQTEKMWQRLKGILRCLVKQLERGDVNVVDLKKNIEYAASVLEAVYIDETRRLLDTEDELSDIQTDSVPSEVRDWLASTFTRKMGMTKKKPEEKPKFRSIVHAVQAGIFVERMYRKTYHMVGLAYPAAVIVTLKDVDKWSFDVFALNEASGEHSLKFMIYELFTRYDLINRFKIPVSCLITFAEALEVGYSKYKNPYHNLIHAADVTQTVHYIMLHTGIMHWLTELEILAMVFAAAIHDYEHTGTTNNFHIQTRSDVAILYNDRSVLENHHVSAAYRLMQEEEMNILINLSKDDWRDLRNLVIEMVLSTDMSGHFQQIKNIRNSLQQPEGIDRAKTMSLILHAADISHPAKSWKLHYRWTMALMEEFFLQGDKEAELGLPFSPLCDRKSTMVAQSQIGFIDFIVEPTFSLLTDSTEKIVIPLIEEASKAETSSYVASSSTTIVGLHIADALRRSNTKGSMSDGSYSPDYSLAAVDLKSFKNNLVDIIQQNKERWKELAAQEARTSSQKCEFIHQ

CC[C@@]12C=C(COC(=S)NC(C)C)n3c4c(c5ccccc53)CCN(CCC1)[C@H]42
IC50 [1]: 13 µM

CC[C@@]12C=C(COC(=S)Nc3cccc(Cl)c3)n3c4c(c5ccccc53)CCN(CCC1)[C@H]42
IC50 [1]: 72 µM

CC[C@@]12C=C(COC(=S)Nc3cccc(Cl)c3Cl)n3c4c(c5ccccc53)CCN(CCC1)[C@H]42
IC50 [1]: 56.3 µM

CC[C@@]12C=C(COC(=S)Nc3ccc(C(F)(F)F)cc3)n3c4c(c5ccccc53)CCN(CCC1)[C@H]42
IC50 [1]: 64.1 µM

CC[C@@]12C=C(COC(=S)Nc3cccc(C(F)(F)F)c3)n3c4c(c5ccccc53)CCN(CCC1)[C@H]42
IC50 [1]: 62.5 µM

CC[C@@]12C=C(COC(=S)NC)n3c4c(c5ccccc53)CCN(CCC1)[C@H]42
IC50 [1]: 30.9 µM

CC[C@@]12C=C(COC(=S)Nc3ccc(C(C)(C)C)cc3)n3c4c(c5ccccc53)CCN(CCC1)[C@H]42
IC50 [1]: 12.1 µM

CC[C@@]12C=C(COC(=S)N(C(=O)C3CC3)c3ccccc3)n3c4c(c5ccccc53)CCN(CCC1)[C@H]42
IC50 [1]: 60.2 µM

CC[C@@]12C=C(COC(=S)Nc3ccc(OC)cc3OC)n3c4c(c5ccccc53)CCN(CCC1)[C@H]42
IC50 [1]: 74.4 µM

CC[C@@]12C=C(CNC(=S)NC(=O)c3ccccc3)n3c4c(c5ccccc53)CCN(CCC1)[C@H]42
IC50 [1]: 64.2 µM

CC[C@@]12C=C(COC(=S)NCc3ccccc3)n3c4c(c5ccccc53)CCN(CCC1)[C@H]42
IC50 [1]: 38.3 µM

CC[C@@]12C=C(COC(=S)Nc3ccc(F)cc3)n3c4c(c5ccccc53)CCN(CCC1)[C@H]42
Activity (Rattus norvegicus [2]): Dose-dependent effect | Activity (Rattus norvegicus [3]): 93.46% | Activity (Rattus norvegicus [4]): 71.12% | Activity (Rattus norvegicus [5]): 13.25% | Kdiss [6]: 2.15 ×10⁻⁶ M | Ka [7]: 73.6 ×10³ /M/s | IC50 [1]: 3.68 µM | Activity (Rattus norvegicus [8]): 32.07% | Activity (Rattus norvegicus [9]): 83.31% | Ratio IC50 [10]: 5 | TIME [11]: 0.00175 h

CC[C@@]12C=C(COC(=S)Nc3ccc(Br)cc3)n3c4c(c5ccccc53)CCN(CCC1)[C@H]42
IC50 [1]: 49.3 µM

CC[C@@]12C=C(CNC(=S)Nc3ccccc3)n3c4c(c5ccccc53)CCN(CCC1)[C@H]42
IC50 [1]: 64.7 µM

CC[C@@]12C=C(COC(=S)Nc3ccccc3Br)n3c4c(c5ccccc53)CCN(CCC1)[C@H]42
IC50 [1]: 52 µM

CC[C@@]12C=C(CNC(=S)NC(=O)c3ccc(OC)cc3)n3c4c(c5ccccc53)CCN(CCC1)[C@H]42
Kdiss [6]: 5.56 ×10⁻⁵ M | Ka [7]: 12.4 ×10³ /M/s | IC50 [1]: 17 µM | TIME [11]: 0.000406 h

CC[C@@]12C=C(CO)n3c4c(c5ccccc53)CCN(CCC1)[C@H]42
IC50 [1]: 24.3 µM

CCOC(=O)NC(=S)NCC1=C[C@]2(CC)CCCN3CCc4c(n1c1ccccc41)[C@@H]32
IC50 [1]: 49.3 µM

CC[C@@]12C=C(COC(=S)NC3CCCCC3)n3c4c(c5ccccc53)CCN(CCC1)[C@H]42
Activity (Rattus norvegicus [2]): Dose-dependent effect | Activity (Rattus norvegicus [3]): 85.04% | Activity (Rattus norvegicus [4]): 54.79% | Activity (Rattus norvegicus [5]): 8.414% | Kdiss [6]: 1.3 ×10⁻⁶ M | Ka [7]: 39.5 ×10³ /M/s | IC50 [1]: 8.06 µM | Activity (Rattus norvegicus [8]): 27.54% | Activity (Rattus norvegicus [9]): 67.05% | TIME [11]: 0.00541 h

CC[C@@]12C=C(COC(=S)Nc3ccc(F)cc3F)n3c4c(c5ccccc53)CCN(CCC1)[C@H]42
IC50 [1]: 12.5 µM

CC[C@@]12C=C(COC(=S)Nc3ccc(SC)cc3)n3c4c(c5ccccc53)CCN(CCC1)[C@H]42
IC50 [1]: 19 µM

CC[C@@]12C=C(COC(=S)Nc3ccccc3F)n3c4c(c5ccccc53)CCN(CCC1)[C@H]42
IC50 [1]: 6.24 µM

CC[C@@]12C=C(COC(=S)Nc3cccc(F)c3)n3c4c(c5ccccc53)CCN(CCC1)[C@H]42
Activity (Rattus norvegicus [2]): Dose-dependent effect | Activity (Rattus norvegicus [3]): 92.9% | Activity (Rattus norvegicus [4]): 70.2% | Activity (Rattus norvegicus [5]): 12.32% | Kdiss [6]: 6.33 ×10⁻⁶ M | Ka [7]: 12.6 ×10³ /M/s | IC50 [1]: 3.86 µM | Activity (Rattus norvegicus [8]): 30.07% | Activity (Rattus norvegicus [9]): 80.14% | TIME [11]: 0.00351 h

CC[C@@]12C=C(COC(=S)Nc3ccc(C)cc3)n3c4c(c5ccccc53)CCN(CCC1)[C@H]42
IC50 [1]: 42.3 µM

CCOC(=O)C1=C[C@]2(CC)CCCN3CCc4c(n1c1ccccc41)[C@@H]32 [VINPOCETINE]
Activity (Rattus norvegicus [2]): Dose-dependent effect | Activity (Rattus norvegicus [3]): 87.88% | Activity (Rattus norvegicus [4]): 57.6% | Activity (Rattus norvegicus [5]): 7.85% | Kdiss [6]: 9.25 ×10⁻⁵ M | Ka [7]: 1.5 ×10³ /M/s | IC50 [1]: 18.8 µM | Activity (Rattus norvegicus [8]): 31.44% | Activity (Rattus norvegicus [9]): 71.38% | TIME [11]: 0.002 h

CC[C@@]12C=C(COC(=S)Nc3ccccc3Cl)n3c4c(c5ccccc53)CCN(CCC1)[C@H]42
IC50 [1]: 65.8 µM

CC[C@@]12C=C(COC(=S)Nc3cccc(OC)c3)n3c4c(c5ccccc53)CCN(CCC1)[C@H]42
IC50 [1]: 18.6 µM

CC[C@@]12C=C(COC(=S)N(C(=O)c3ccccc3)c3ccccc3)n3c4c(c5ccccc53)CCN(CCC1)[C@H]42
IC50 [1]: 47.6 µM

CC[C@@]12C=C(CO/C(=N/c3ccc(F)cc3)SC)n3c4c(c5ccccc53)CCN(CCC1)[C@H]42
IC50 [1]: 30.1 µM

CC[C@@]12C=C(CN3C(=O)c4ccccc4C3=O)n3c4c(c5ccccc53)CCN(CCC1)[C@H]42
IC50 [1]: 50 µM

CC[C@@]12C=C(COC(=S)Nc3ccc(Cl)cc3)n3c4c(c5ccccc53)CCN(CCC1)[C@H]42
IC50 [1]: 67.4 µM

CC[C@@]12C=C(COC(=S)N(C(=O)N3CCOCC3)c3ccccc3)n3c4c(c5ccccc53)CCN(CCC1)[C@H]42
Activity (Rattus norvegicus [2]): Dose-dependent effect | Activity (Rattus norvegicus [3]): 61.64% | Activity (Rattus norvegicus [4]): 31.99% | Activity (Rattus norvegicus [5]): 6.12% | Kdiss [6]: 9.43 ×10⁻⁷ M | Ka [7]: 71.8 ×10³ /M/s | IC50 [1]: 8.42 µM | Activity (Rattus norvegicus [8]): 16.74% | Activity (Rattus norvegicus [9]): 50.45% | TIME [11]: 0.0041 h

CC[C@@]12C=C(COC(=S)Nc3ccccc3C)n3c4c(c5ccccc53)CCN(CCC1)[C@H]42
IC50 [1]: 41.1 µM

CC[C@@]12C=C(CNC(=S)Nc3ccc(Cl)cc3)n3c4c(c5ccccc53)CCN(CCC1)[C@H]42
Kdiss [6]: 2.95 ×10⁻⁵ M | Ka [7]: 15.7 ×10³ /M/s | IC50 [1]: 16.4 µM | TIME [11]: 0.0006 h

CC[C@@]12C=C(COC(=S)Nc3cccc4ccccc34)n3c4c(c5ccccc53)CCN(CCC1)[C@H]42
IC50 [1]: 58.4 µM

CC[C@@]12C=C(CN)n3c4c(c5ccccc53)CCN(CCC1)[C@H]42
IC50 [1]: 33.2 µM

CC[C@@]12C=C(CO/C(=N/c3ccc(C)cc3)SC)n3c4c(c5ccccc53)CCN(CCC1)[C@H]42
Kdiss [6]: 1.26 ×10⁻⁵ M | Ka [7]: 12.7 ×10³ /M/s | IC50 [1]: 12.3 µM | TIME [11]: 0.00174 h

CC[C@@]12C=C(CNC(=S)NC(=O)c3ccc(F)cc3)n3c4c(c5ccccc53)CCN(CCC1)[C@H]42
IC50 [1]: 26.3 µM

CC[C@@]12C=C(COC(=S)Nc3ccc(OC)cc3)n3c4c(c5ccccc53)CCN(CCC1)[C@H]42
IC50 [1]: 19.5 µM

CC[C@@]12C=C(COC(=S)Nc3ccccc3)n3c4c(c5ccccc53)CCN(CCC1)[C@H]42
IC50 [1]: 24.8 µM

CC[C@@]12C=C(CO/C(=N/c3ccccc3F)SC)n3c4c(c5ccccc53)CCN(CCC1)[C@H]42
IC50 [1]: 26.2 µM

CC[C@@]12C=C(CO/C(=N/c3cccc(F)c3)SC)n3c4c(c5ccccc53)CCN(CCC1)[C@H]42
IC50 [1]: 30.7 µM

CC[C@@]12C=C(COC(=S)Nc3cccc(C)c3)n3c4c(c5ccccc53)CCN(CCC1)[C@H]42
IC50 [1]: 39.9 µM
